Laboratory results taken from patent publication US20260256792A1, “TREATMENT OF CHRONIC SPONTANEOUS URTICARIA BY ADMINISTERING (R)-2-[3-[4-AMINO-3-(2-FLUORO-4-PHENOXY-PHENYL)PYRAZOLO[3,4-D]PYRIMIDIN-1-YL]PIPERIDINE-1-CARBONYL]-4-METHYL-4-[4-(OXETAN-3-YL)PIPERAZIN-1-YL]PENT-2-ENENITRILE” (priority 2023, published 2026).

Tests used:
[1] = system: naturally occurring pemphigus foliaceus (PF); conditions: dogs with newly diagnosed pemphigus foliaceus; cited from earlier work
other TEC family members = conditions: cited from earlier work
[2] = system: immune thrombocytopenic purpura (ITP); conditions: cited from earlier work
IL-31 = assay: Phase 2 CSU study: serum IL-31 HTRF assay; format: in vivo, human; conditions: for IL-31 (ng/mL) Median Percent Change from Baseline: Baseline to Week 12
Source text: Blood samples were also collected through Week 12 to evaluate the change in baseline in various biomarkers, including sMRGPRX2, IgG anti-TPO, IgG anti-FCεRI, IgG anti-IgE, and IL-31.
Collection of biological samples for other biomarker research was also part of this study. The following samples for biomarker research were required and were to be collected from all participants in this study: • Serum and plasma samples for soluble biomarkers and cellular tests. Analytes included IgG anti-IgE, IgG anti-FcεRI, IgG anti-TPO, IgE anti-TPO, IL-31, and sMRGPRX2. • Blood samples for immune cell phenotyping, including measurement of eosinophil levels • Blood samples for BTK occupancy in peripheral blood mononuclear cells (PBMCs) at selected sites
For each patient, serum samples were to be collected on each of four visits (Visits 2, 4, 6, and end of study/follow up).
Serum analyte testing was to be performed using the following commercial assays: • sMRGPRX2 ELISA (Cat. No. #MBS933336; MyBioSource) • IL-31 HTRF assay (Cat. No. #62HIL31PEG; Cisbio/PerkinElmer) • IgG anti-TPO ELISA (Cat. No. #ORG503; Orgentec Diagnostica GmbH)
If dilutions were to be prepared, the same dilutions were to be prepared twice from each sample. These were to be measured on different plates. Each plate was to include a standard curve. Samples were to be measured twice for all biomarkers except for sMRGPRX2. Mean measurement values were to be calculated, and the concentration of the biomarker was to be calculated using GraphPad Prism 9 software (4-PL model).
The IL-31 HTRF assay was performed according to the manufacturer's instructions.
Assay data ranges are described below. • sMRGPRX2: 0.1 ng/mL-10 ng/mL • IgG anti-FCεRI: 0-10000 arbitrary units (AU) • IgG anti-TPO: 0-3000 international units (IU) • IgE anti-TPO: 0-500 AU • IgG anti-IgE: 0-100000 AU • IL-31: 0.1 ng/mL-20 ng/mL

healthy volunteers = conditions: cited from earlier work
rat Arthus reaction = conditions: cited from earlier work
[3] = system: 251 kinases sharing a common cysteine in their active site; conditions: 1 μM; cited from earlier work

## CC(C)(C=C(C#N)C(=O)N1CCC[C@@H](n2nc(-c3ccc(Oc4ccccc4)cc3F)c3c(N)ncnc32)C1)N1CCN(C2COC2)CC1 [rilzabrutinib, (R)-2-[3-[4-amino-3-(2-fluoro-4-phenoxy-phenyl)pyrazolo[3,4-d]pyrimidin-1-yl]piperidine-1-carbonyl]-4-methyl-4-[4-(oxetan-3-yl)piperazin-1-yl]pent-2-enenitrile]
[1]
  cases with disease controlled without corticosteroid: 4 of 4
Other TEC family members
  binding over time: decayed rapidly over time
[2]; ITP Phase 1/2
  treatment-emergent serious adverse events (TESAEs): no treatment-emergent serious adverse events
[2]; ITP, treatment for at least 12 weeks
  participants achieving the primary response endpoint: 50%
IL-31; 400 mg TID, Week 12
  reduction from baseline median IL-31 levels: 8.1%
IL-31; 400 mg BID
  IL-31 (ng/mL) Median Percent Change from Baseline: −6.8%
IL-31; 400 mg QPM
  IL-31 (ng/mL) Median Percent Change from Baseline: −11.6%
IL-31; 400 mg TID
  IL-31 (ng/mL) Median Percent Change from Baseline: −8.1%
Healthy volunteers
  most commonly reported adverse events: gastrointestinal adverse events, including nausea/vomiting and diarrhea
  serious adverse events or deaths: No serious adverse events or deaths
Rat Arthus reaction
  rat Arthus reaction: blockade
[3]
  number of kinases inhibited (>90% inhibition) of 251 kinases: 6
